From paper PMC7979765, “trans-Translation inhibitors bind to a novel site on the ribosome and clear Neisseria gonorrhoeae in vivo” (Nature Communications, 2021)
Values after ≈ are worked out from the molar mass of the structure shown. Values joined by “and” are separate entries in the source; they are usually repeats but may differ in a detail not shown here. Equal entries are not always repeated. “Also recorded” adds a separate entry of the source. Where two headings read alike, the source gives them in different places.

Legend:
[1] = tested on: Legionella pneumophila; test: microbe, parasite or virus in culture; format: cell-based
[2] = molecular target: T1, Cannabinoid CB2 (Homo sapiens, UniProt P34972); test: Receptor Profiling 217100; format: binding
T1 construct: purchased Eurofins Discovery Services (Panlabs safety panel)
Method: (§1) Several in vitro selectivity assays were performed at Eurofins Discovery Services using established methods and controls that behaved as expected (Supplementary Tables 5 and 6). […] For receptor panel profiling, MBX-4132 was evaluated at 10 μM and activity of >50% (agonist or antagonist; note that negative % inhibition indicates agonism) was scored as active.

[3] = tested on: GABAA, Flunitrazepam, Central; test: Receptor Profiling 226600; format: binding, rat; conditions: 10 μM
Method: as §1

[4] = tested on: Salmonella typhimurium strains TA98 and TA100; format: cell-based
Method: The Ames assay was performed at SRI Biosciences, following the standard protocols established there[55]–[57]. In brief, samples were evaluated for their ability to induce genetic damage using the plate incorporation method with Salmonella typhimurium strains TA98 and TA100 with and without a metabolic activation mixture containing 10% Aroclar-1254-induced rat-liver microsomes (S9). MBX-4132 was tested from a 5 mg/mL DMSO stock solution (the solubility limit), which provided plate concentrations up to 500 µg/plate, with serial dilutions accessing doses as low as 5 µg/plate. MBX-4132 precipitated at the two highest dose levels (500 and 100 µg/plate), but at 50 µg/plate, no precipitation was observed. […] Test articles were considered mutagenic when the mean number of revertant colonies increased in a dose-dependent manner. Some cytotoxicity was observed, but sufficient colonies were formed to allow analysis. […] Data for 2-nitrofluorene and sodium azide (positive controls) and DMSO (negative control) were included for reference.

[5] = in vitro; conditions: mouse, serum
[6] = molecular target: T2, Nav1.5 late current (Homo sapiens, UniProt Q14524); test: Cardiac Ion Channel Panel; format: cell-based
T2 construct: Eurofins Discovery Services (contract assay) CYL8004QP2DR; CYL7004QP1DR; CYL7004QP2DR
Method: as §1

[7] = molecular target: T3, Kv4.3/ChIP2 (Homo sapiens, UniProt Q9UK17); test: Cardiac Ion Channel Panel; format: cell-based; conditions: Kv4.3/ChIP2 antagonist; Peak $ End; CYL8069QP2DR; read-out: IC50 (µM) reported
T3 construct: Eurofins Discovery Services (contract assay) CYL8069QP2DR
Method: as §1

[8] = molecular target: T4, hERG (Homo sapiens, UniProt Q12809); test: Cardiac Ion Channel Panel; format: cell-based; conditions: hERG antagonist; CYL8038QP2DR; read-out: IC50 (µM) reported
T4 construct: Eurofins Discovery Services (contract assay) CYL8038QP2DR
Method: as §1

[9] = molecular target: T5, Kir2.1 (Homo sapiens, UniProt P63252); test: Cardiac Ion Channel Panel; format: cell-based; conditions: Kir2.1 antagonist; Peak $ End; CYL8032QP2DR; read-out: IC50 (µM) reported
T5 construct: Eurofins Discovery Services (contract assay) CYL8032QP2DR
Method: as §1

[10] = molecular target: T6, Nav1.5 (Homo sapiens, UniProt Q14524); test: Cardiac Ion Channel Panel; format: cell-based
T6 construct: Eurofins Discovery Services (contract assay) CYL8004QP2DR; CYL7004QP1DR; CYL7004QP2DR
Method: as §1

[11] = molecular target: T7, Androgen (testosterone) (Homo sapiens, UniProt P10275); test: Receptor Profiling 206000; format: binding
T7 construct: purchased Eurofins Discovery Services (Panlabs safety panel)
Method: as §1

[12] = tested on: translation; test: In vitro translation assay (full-length nano-luciferase gene); format: biochemical, Escherichia coli; conditions: for % of translation activity: 0 uM = 100
[13] = molecular target: T8, Muscarinic M3 (Homo sapiens, UniProt P20309); test: Receptor Profiling 252810; format: binding
T8 construct: purchased Eurofins Discovery Services (Panlabs safety panel)
Method: as §1

[14] = tested on: CYP1A; test: Cyp inhibition assay 4876; format: in vitro ADME, human; conditions: catalog reference 4876
Method: as §1

T2 sequence (Q14524 whole entry): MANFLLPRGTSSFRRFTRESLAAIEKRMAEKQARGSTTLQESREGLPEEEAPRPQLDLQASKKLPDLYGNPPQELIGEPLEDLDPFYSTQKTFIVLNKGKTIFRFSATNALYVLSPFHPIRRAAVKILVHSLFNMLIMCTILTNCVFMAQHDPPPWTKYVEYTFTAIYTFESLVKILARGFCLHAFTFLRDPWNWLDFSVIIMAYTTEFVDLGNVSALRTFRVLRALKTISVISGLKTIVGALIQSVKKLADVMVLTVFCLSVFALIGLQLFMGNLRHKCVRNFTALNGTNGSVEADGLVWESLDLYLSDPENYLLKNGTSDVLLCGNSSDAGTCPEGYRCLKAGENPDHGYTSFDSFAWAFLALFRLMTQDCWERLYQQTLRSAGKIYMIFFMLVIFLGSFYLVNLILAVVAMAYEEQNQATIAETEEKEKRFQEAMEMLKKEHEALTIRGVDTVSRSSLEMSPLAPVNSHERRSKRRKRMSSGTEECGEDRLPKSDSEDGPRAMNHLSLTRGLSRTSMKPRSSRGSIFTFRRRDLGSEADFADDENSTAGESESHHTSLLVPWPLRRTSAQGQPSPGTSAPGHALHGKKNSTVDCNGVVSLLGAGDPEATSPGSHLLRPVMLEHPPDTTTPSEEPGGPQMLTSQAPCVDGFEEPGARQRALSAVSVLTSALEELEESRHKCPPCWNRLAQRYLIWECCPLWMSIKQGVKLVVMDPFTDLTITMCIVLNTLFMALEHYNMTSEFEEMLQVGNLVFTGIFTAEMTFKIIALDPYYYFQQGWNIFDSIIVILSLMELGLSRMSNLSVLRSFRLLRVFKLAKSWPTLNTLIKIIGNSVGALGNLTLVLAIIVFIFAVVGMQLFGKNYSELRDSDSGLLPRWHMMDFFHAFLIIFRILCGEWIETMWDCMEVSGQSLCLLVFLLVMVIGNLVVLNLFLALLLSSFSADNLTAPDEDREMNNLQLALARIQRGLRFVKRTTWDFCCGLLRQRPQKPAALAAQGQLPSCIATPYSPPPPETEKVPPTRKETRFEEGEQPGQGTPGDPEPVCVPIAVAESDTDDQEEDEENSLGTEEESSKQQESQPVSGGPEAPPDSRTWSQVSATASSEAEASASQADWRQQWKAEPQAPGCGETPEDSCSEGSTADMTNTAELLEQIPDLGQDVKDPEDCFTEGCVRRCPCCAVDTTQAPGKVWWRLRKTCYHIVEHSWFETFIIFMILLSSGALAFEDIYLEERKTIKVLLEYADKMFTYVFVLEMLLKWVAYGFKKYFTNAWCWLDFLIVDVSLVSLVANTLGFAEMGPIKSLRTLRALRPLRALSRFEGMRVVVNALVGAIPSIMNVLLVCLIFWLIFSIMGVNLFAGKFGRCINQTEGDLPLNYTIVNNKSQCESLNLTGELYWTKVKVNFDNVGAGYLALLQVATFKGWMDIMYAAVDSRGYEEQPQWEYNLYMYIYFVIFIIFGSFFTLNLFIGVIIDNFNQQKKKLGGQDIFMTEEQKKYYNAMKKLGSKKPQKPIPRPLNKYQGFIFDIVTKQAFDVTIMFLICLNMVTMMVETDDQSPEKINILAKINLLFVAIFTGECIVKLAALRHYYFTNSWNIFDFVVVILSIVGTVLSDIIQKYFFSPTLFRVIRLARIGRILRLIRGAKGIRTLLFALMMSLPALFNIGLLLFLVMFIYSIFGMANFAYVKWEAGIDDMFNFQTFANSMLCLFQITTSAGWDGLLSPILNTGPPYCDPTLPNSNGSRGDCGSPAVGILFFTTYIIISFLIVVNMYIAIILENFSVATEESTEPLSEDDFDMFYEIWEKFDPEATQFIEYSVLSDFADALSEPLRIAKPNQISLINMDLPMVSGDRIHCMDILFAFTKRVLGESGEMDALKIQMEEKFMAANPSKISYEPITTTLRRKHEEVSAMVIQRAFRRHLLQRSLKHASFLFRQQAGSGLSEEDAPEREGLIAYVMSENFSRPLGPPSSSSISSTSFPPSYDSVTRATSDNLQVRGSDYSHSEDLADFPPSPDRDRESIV
T5 sequence (P63252 whole entry): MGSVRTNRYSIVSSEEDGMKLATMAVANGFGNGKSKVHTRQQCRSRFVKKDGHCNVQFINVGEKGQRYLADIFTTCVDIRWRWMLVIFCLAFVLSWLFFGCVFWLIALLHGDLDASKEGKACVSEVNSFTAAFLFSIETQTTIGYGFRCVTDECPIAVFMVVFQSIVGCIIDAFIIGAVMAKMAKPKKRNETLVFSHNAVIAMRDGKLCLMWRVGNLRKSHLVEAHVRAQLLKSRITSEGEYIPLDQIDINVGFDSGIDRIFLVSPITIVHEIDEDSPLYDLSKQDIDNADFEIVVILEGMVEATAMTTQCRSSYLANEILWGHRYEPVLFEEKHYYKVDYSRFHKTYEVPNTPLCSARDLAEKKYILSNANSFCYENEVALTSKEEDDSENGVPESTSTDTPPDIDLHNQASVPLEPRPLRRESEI
T4 sequence (Q12809 whole entry): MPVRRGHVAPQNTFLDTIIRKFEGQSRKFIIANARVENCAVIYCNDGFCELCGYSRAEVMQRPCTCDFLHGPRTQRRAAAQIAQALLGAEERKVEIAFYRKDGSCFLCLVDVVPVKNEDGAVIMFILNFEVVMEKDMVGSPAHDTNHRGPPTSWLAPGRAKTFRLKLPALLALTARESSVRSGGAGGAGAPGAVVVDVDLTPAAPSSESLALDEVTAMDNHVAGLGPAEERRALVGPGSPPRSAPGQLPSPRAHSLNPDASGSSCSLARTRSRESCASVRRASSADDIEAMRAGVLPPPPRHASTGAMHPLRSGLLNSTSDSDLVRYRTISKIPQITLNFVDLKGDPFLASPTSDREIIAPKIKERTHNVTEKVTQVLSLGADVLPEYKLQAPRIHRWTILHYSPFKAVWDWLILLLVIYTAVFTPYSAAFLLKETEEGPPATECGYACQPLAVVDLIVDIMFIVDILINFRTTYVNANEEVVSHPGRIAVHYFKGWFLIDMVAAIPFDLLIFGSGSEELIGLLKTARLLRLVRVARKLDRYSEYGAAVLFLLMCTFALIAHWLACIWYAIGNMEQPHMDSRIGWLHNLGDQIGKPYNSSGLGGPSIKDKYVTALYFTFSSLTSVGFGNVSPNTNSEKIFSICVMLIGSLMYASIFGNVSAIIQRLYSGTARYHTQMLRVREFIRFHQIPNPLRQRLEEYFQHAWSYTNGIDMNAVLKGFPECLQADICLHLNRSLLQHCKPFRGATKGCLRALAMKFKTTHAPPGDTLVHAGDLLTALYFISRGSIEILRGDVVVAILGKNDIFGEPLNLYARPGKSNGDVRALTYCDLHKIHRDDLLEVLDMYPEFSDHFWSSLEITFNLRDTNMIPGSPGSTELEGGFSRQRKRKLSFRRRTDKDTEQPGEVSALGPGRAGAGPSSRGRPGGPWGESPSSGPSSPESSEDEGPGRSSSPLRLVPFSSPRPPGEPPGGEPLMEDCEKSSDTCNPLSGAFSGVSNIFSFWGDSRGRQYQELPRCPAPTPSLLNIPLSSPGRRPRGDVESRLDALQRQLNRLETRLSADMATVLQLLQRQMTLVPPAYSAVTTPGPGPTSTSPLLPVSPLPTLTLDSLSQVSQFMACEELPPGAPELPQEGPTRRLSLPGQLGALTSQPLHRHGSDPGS
T3 sequence (Q9UK17 whole entry): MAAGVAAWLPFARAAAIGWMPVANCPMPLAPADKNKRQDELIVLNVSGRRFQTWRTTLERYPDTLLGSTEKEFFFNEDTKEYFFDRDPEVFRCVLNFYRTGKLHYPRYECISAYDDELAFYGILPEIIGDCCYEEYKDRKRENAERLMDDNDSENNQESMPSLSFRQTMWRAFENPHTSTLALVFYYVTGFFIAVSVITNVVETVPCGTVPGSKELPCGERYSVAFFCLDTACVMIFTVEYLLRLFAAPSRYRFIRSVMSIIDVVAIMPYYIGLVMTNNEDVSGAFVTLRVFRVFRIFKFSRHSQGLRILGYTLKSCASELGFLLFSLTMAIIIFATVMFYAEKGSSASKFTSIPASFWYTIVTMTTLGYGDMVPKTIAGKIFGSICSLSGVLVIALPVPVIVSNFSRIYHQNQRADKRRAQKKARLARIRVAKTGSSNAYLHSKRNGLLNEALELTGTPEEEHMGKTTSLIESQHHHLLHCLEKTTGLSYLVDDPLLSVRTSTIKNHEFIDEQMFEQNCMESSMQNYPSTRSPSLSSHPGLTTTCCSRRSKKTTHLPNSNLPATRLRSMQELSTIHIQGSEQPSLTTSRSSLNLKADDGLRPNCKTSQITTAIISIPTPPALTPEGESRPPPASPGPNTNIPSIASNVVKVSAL
T3 sequence (Q9NS61 whole entry partner): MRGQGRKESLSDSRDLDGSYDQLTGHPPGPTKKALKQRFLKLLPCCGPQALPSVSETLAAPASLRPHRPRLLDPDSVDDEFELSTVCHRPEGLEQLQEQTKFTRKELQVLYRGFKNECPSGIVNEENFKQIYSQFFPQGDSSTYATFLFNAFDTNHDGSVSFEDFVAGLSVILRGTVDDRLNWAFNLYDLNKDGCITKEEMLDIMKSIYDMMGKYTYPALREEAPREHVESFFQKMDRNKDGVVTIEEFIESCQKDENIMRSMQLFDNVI
T1 sequence (P34972 whole entry): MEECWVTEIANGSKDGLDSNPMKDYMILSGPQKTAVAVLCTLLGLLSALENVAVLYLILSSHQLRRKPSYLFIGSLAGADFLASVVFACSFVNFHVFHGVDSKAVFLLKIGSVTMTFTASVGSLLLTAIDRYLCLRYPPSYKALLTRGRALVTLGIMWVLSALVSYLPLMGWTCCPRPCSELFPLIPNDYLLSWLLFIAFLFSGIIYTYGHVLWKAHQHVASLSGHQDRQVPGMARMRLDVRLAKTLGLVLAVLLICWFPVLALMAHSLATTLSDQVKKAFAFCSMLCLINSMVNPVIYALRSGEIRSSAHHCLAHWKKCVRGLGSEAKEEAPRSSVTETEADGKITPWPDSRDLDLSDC

## O=C(Nc1nnc(-c2ccc(F)cc2)o1)N1CCc2ccccc2C1 [MBX-4132]
[1]; Legionella pneumophila ATCC 33153, replicates
  MIC: 8.50 µg/mL (≈ 25.1 µM)
[1]; Legionella pneumophila, ATCC33153
  MIC: 8.5 µg/mL (≈ 25.1 µM)
[2]
  inhibition at 10 µM: -4%
[3]
  % inhibition: 3%
[4]; TA98, 1 µg/plate, + S9
  Average Mean Revertants/plate: 23.5 Revertants/plate
[4]; TA98, 1 µg/plate, no S9
  Average Mean Revertants/plate: 21.5 Revertants/plate
[4]; TA98, 1 µg/plate, no S9, replicates
  Mean Revertants/plate: 23 Revertants/plate and 20 Revertants/plate
[4]; TA98, 5 µg/plate, + S9
  Average Mean Revertants/plate: 22 Revertants/plate
[4]; TA98, 5 µg/plate, no S9
  Average Mean Revertants/plate: 17.0 Revertants/plate
[4]; TA98, 5 µg/plate, no S9, replicates
  Mean Revertants/plate: 18 Revertants/plate and 16 Revertants/plate
[4]; TA98, 10 µg/plate, + S9
  Average Mean Revertants/plate: 21 Revertants/plate
[4]; TA98, 10 µg/plate, no S9
  Average Mean Revertants/plate: 15.0 Revertants/plate
[4]; TA98, 10 µg/plate, no S9, replicates
  Mean Revertants/plate: 14 Revertants/plate and 16 Revertants/plate
[4]; TA98, 50 µg/plate, + S9
  Average Mean Revertants/plate: 18.5 Revertants/plate
[4]; TA98, 50 µg/plate, no S9
  Average Mean Revertants/plate: 20.0 Revertants/plate
[4]; TA98, 50 µg/plate, no S9, replicates
  Mean Revertants/plate: 18 Revertants/plate and 22 Revertants/plate
[4]; TA98, 100 µg/plate, + S9
  Average Mean Revertants/plate: 17.5 Revertants/plate
[4]; TA98, 100 µg/plate, no S9
  Average Mean Revertants/plate: 20.0 Revertants/plate
[4]; TA98, 100 µg/plate, no S9, replicates
  Mean Revertants/plate: 18 Revertants/plate and 22 Revertants/plate
[4]; TA98, 500 µg/plate, + S9
  Average Mean Revertants/plate: 20 Revertants/plate
[4]; TA98, 500 µg/plate, no S9
  Average Mean Revertants/plate: 17.5 Revertants/plate
[4]; TA98, 500 µg/plate, no S9, replicates
  Mean Revertants/plate: 19 Revertants/plate and 16 Revertants/plate
[4]; TA98, + S9, 1 µg/plate
  Mean Revertants/plate: 23.5
[4]; TA98, + S9, 5 µg/plate
  Mean Revertants/plate: 22.0
[4]; TA98, + S9, 10 µg/plate
  Mean Revertants/plate: 21.0
[4]; TA98, + S9, 50 µg/plate
  Mean Revertants/plate: 18.5
[4]; TA98, + S9, 100 µg/plate
  Mean Revertants/plate: 17.5
[4]; TA98, + S9, 500 µg/plate
  Mean Revertants/plate: 20.0
[4]; TA98, without S9, 1 µg/plate
  Mean Revertants/plate: 21.5
[4]; TA98, without S9, 5 µg/plate
  Mean Revertants/plate: 17.0
[4]; TA98, without S9, 10 µg/plate
  Mean Revertants/plate: 15.0
[4]; TA98, without S9, 50 µg/plate
  Mean Revertants/plate: 20.0
[4]; TA98, without S9, 100 µg/plate
  Mean Revertants/plate: 20.0
[4]; TA98, without S9, 500 µg/plate
  Mean Revertants/plate: 17.5
[4]; TA98 and TA100, with and without S9, any concentration tested
  revertant colonies vs DMSO control (in words): no significant deviation
[4]; TA100, 1 µg/plate, + S9
  Average Mean Revertants/plate: 107.5 Revertants/plate
[4]; TA100, 1 µg/plate, no S9
  Average Mean Revertants/plate: 112.5 Revertants/plate
[4]; TA100, 1 µg/plate, no S9, replicates
  Mean Revertants/plate: 108 Revertants/plate and 117 Revertants/plate
[4]; TA100, 5 µg/plate, + S9
  Average Mean Revertants/plate: 125.5 Revertants/plate
[4]; TA100, 5 µg/plate, no S9
  Average Mean Revertants/plate: 99.0 Revertants/plate
[4]; TA100, 5 µg/plate, no S9, replicates
  Mean Revertants/plate: 98 Revertants/plate and 100 Revertants/plate
[4]; TA100, 10 µg/plate, + S9
  Average Mean Revertants/plate: 102 Revertants/plate
[4]; TA100, 10 µg/plate, no S9
  Average Mean Revertants/plate: 97.0 Revertants/plate
[4]; TA100, 10 µg/plate, no S9, replicates
  Mean Revertants/plate: 94 Revertants/plate and 100 Revertants/plate
[4]; TA100, 50 µg/plate, + S9
  Average Mean Revertants/plate: 71 Revertants/plate
[4]; TA100, 50 µg/plate, no S9
  Average Mean Revertants/plate: 73.0 Revertants/plate
[4]; TA100, 50 µg/plate, no S9, replicates
  Mean Revertants/plate: 79 Revertants/plate and 67 Revertants/plate
[4]; TA100, 100 µg/plate, + S9
  Average Mean Revertants/plate: 43 Revertants/plate
[4]; TA100, 100 µg/plate, no S9
  Average Mean Revertants/plate: 54.0 Revertants/plate
[4]; TA100, 100 µg/plate, no S9, replicates
  Mean Revertants/plate: 55 Revertants/plate and 53 Revertants/plate
[4]; TA100, 500 µg/plate, + S9
  Average Mean Revertants/plate: 19.5 Revertants/plate
[4]; TA100, 500 µg/plate, no S9
  Average Mean Revertants/plate: 35.5 Revertants/plate
[4]; TA100, 500 µg/plate, no S9, replicates
  Mean Revertants/plate: 38 Revertants/plate and 33 Revertants/plate
[4]; TA100, + S9, 1 µg/plate
  Mean Revertants/plate: 107.5
[4]; TA100, + S9, 5 µg/plate
  Mean Revertants/plate: 125.5
[4]; TA100, + S9, 10 µg/plate
  Mean Revertants/plate: 102.0
[4]; TA100, + S9, 50 µg/plate
  Mean Revertants/plate: 71.0
[4]; TA100, + S9, 100 µg/plate
  Mean Revertants/plate: 43.0
[4]; TA100, + S9, 500 µg/plate
  Mean Revertants/plate: 19.5
[4]; TA100, without S9, 1 µg/plate
  Mean Revertants/plate: 112.5
[4]; TA100, without S9, 5 µg/plate
  Mean Revertants/plate: 99.0
[4]; TA100, without S9, 10 µg/plate
  Mean Revertants/plate: 97.0
[4]; TA100, without S9, 50 µg/plate
  Mean Revertants/plate: 73.0
[4]; TA100, without S9, 100 µg/plate
  Mean Revertants/plate: 54.0
[4]; TA100, without S9, 500 µg/plate
  Mean Revertants/plate: 35.5
[5]; Murine serum stability (% remaining after 1 hr)
  remaining at 1 h: 109%
[5]; Murine serum stability (% remaining after 1 hr), Replicate 1/2, MBX
  remaining at 1 h: 92.6%
[5]; Murine serum stability (% remaining after 1 hr), Reported value, MBX
  remaining at 1 h: > 99.8%
[5]; serum stability, % remaining after 1 h, murine serum, 1 h incubation at 37 °C
  remaining at 1 h: > 99.8%
[6]
  IC50: > 30 µM
[6]; read-out: Est. IC50, Antagonist mode
  IC50: > 30 µM
[6]; read-out: IC50 (µM) reported, Nav1.5 late current agonist, CYL7004QP1DR
  IC50: > 30 µM
[6]; read-out: IC50 (µM) reported, Nav1.5 late current antagonist, CYL7004QP2DR
  IC50: > 30 µM
[7]
  IC50: > 30 µM
[8]
  IC50: > 30 µM
[9]
  IC50: > 30 µM
[10]
  IC50: > 30 µM
[11]
  inhibition at 10 µM: -2%
[12]; [MBX-4132] 0.01 uM
  % of translation activity: 94% and 99%
[12]; [MBX-4132] 0.1 uM
  % of translation activity: 98% and 102%
[12]; [MBX-4132] 1 uM
  % of translation activity: 92% and 103%
[12]; [MBX-4132] 2 uM
  % of translation activity: 86% and 97%
[12]; [MBX-4132] 10 uM
  % of translation activity: 106% and 98%
[12]; [MBX-4132] 20 uM
  % of translation activity: 97% and 96%
[12]; [MBX-4132] 50 uM
  % of translation activity: 93% and 99%
[12]; full-length nano-luciferase gene control
  inhibition of translation in vitro (in words): did not inhibit translation; also recorded: does not inhibit translation
[13]
  inhibition at 10 µM: 5%
[14]
  pIC50 (µM) reported: No activity
